Laboratory results published in ChEMBL document CHEMBL4033690, “Potential anti-gout constituents as xanthine oxidase inhibitor from the fruits of Stauntonia brachyanthera” (Bioorg Med Chem, 2017).

The compounds below were run against Xanthine dehydrogenase/oxidase (Homo sapiens, UniProt P47989) (assay: Inhibition of xanthine oxidase (unknown origin) using xanthine as substrate preincubated for 15 mins followed by substrate addition by spectrophotometric method).
Chain of Xanthine dehydrogenase/oxidase (P47989 whole entry): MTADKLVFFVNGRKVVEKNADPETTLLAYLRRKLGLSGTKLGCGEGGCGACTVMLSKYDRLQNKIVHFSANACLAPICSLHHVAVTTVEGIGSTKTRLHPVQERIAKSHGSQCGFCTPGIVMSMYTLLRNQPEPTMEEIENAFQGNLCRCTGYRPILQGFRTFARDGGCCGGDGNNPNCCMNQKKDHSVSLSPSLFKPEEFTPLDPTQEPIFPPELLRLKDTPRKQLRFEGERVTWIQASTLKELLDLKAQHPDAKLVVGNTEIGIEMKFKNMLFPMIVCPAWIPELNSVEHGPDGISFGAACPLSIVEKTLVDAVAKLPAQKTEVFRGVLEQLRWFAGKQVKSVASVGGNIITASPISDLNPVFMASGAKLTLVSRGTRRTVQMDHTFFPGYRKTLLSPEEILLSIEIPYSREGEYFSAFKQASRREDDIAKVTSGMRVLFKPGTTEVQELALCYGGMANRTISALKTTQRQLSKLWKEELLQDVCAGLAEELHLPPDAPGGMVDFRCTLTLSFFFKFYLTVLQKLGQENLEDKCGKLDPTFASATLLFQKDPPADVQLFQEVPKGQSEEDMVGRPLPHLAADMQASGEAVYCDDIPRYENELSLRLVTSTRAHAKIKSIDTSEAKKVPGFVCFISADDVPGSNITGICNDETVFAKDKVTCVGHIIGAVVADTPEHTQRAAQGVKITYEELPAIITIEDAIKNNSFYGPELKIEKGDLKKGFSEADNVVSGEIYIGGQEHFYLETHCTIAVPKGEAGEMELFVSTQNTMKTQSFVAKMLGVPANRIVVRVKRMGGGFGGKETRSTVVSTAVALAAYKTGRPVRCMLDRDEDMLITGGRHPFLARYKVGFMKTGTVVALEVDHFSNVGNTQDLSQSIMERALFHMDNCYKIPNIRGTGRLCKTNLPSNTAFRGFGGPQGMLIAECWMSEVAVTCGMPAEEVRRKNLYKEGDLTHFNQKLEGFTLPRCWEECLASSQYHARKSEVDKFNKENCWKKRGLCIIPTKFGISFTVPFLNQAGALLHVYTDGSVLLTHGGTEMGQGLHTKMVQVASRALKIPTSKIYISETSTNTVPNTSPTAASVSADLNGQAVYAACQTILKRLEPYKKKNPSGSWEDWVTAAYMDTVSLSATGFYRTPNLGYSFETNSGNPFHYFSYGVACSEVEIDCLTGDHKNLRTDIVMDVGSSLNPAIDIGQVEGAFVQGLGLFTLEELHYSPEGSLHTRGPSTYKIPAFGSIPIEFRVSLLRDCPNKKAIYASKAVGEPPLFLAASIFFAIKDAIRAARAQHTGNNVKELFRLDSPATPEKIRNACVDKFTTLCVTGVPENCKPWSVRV
In the case of `C=C1CC[C@]2(C(=O)O[C@@H]3O[C@H](CO[C@@H]4O[C@H](CO)[C@@H](O[C@@H]5O[C@@H](C)[C@H](O)[C@@H](O)[C@H]5O)[C@H](O)[C@H]4O)[C@@H](O)[C@H](O)[C@H]3O)CC[C@]3(C)C(=CC[C@@H]4[C@@]5(C)CC[C@H](O[C@@H]6O[C@H](CO)[C@@H](O)[C@H](O[C@@H]7OC[C@H](O)[C@H](O)[C@H]7O[C@@H]7O[C@@H](C)[C@H](O)[C@@H](O)[C@H]7O)[C@H]6O)C(C)(C)[C@@H]5CC[C@]43C)[C@@H]2C1`, the IC50 is reported as > 100 µM. `COc1cc(C(=O)OC[C@@]2(O)CO[C@@H](O[C@H]3[C@H](Oc4ccc(C(=O)O)cc4OC)O[C@H](CO)[C@@H](O)[C@@H]3O)[C@@H]2O)ccc1O` was tested, and the IC50 was > 100 µM. `O=c1c(O[C@@H]2O[C@H](CO)[C@@H](O)[C@H](O)[C@H]2O)c(-c2ccc(O)c(O)c2)oc2cc(O)cc(O)c12` [ISOQUERCETIN] was tested, and the IC50 was 1.6 µM.
